Source: patent publication US9167822B2, “Antifungal compositions” (DSM IP ASSETS B.V., priority 2012, dated 2015)

Test system: Botrytis cinerea
Assay: In vitro antifungal activity, 96-well microtiter plates
Format: cell-based
Conditions: 25° C., day 3, 1.25 ppm natamycin, 6.25 ppm isopyrazam or both
Method: Subsequently, 100 μl of a Botrytis cinerea suspension prepared in PCB medium was used to inoculated each well with 2.5×10^3 spores/ml. […] After incubation of the microtiter plates at 25° C., the in vitro antifungal activity (%) of the individual active ingredients was assessed by calculating the reduction in mould growth observed in the presence of the active ingredient in comparison to the mould growth observed in the absence of the active ingredient. The expected antifungal activity (E in %) of the active ingredient combination was calculated according to the Colby equation (Colby, 1967): […]

SMILES: C[C@@H]1C/C=C/C=C/C=C/C=C/[C@H](O[C@@H]2O[C@H](C)[C@@H](O)[C@H](N)[C@@H]2O)C[C@@H]2O[C@](O)(C[C@@H](O)C[C@H]3O[C@@H]3/C=C/C(=O)O1)C[C@H](O)[C@H]2C(=O)O [Natamycin, natamycin]
- Observed antifungal activity O (%): 0%
